# Where two headings read alike, the source gives them in different places.
# What was measured:
# [1] = test system: Akt phosphorylated at Thr308 in PC-3 cells; experiment: Cellular assay: phosphorylation of Akt at Thr308 in PC-3 cells (MSD ELISA); type: cell-based; conditions: PC-3 cells, 60 min compound incubation, MSD ELISA, read-out: IC50 pAkt_Thr308
# Procedure, shortened: (§1)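 PC-3 cells were exposed to compound or 0.3% DMSO for 60 min at 37° C, 5% CO2, then lysed in ice-cold buffer. Phospho-Akt was captured on site-specific antibody-coated plates and detected with Sulfo-tag anti-total Akt by electrochemiluminescence. IC50 values came from five-concentration response curves.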
# [2] = biological target: T1, PI3Kδ (Homo sapiens, UniProt O00329); experiment: Enzyme binding assay (KINOMEscan, DiscoveRx); conditions: PIK3Cδ_h
# T1 construct: purchased DiscoveRx Corporation, San Diego (contract service, KINOMEscan)
# T1 sequence (O00329 1-1044): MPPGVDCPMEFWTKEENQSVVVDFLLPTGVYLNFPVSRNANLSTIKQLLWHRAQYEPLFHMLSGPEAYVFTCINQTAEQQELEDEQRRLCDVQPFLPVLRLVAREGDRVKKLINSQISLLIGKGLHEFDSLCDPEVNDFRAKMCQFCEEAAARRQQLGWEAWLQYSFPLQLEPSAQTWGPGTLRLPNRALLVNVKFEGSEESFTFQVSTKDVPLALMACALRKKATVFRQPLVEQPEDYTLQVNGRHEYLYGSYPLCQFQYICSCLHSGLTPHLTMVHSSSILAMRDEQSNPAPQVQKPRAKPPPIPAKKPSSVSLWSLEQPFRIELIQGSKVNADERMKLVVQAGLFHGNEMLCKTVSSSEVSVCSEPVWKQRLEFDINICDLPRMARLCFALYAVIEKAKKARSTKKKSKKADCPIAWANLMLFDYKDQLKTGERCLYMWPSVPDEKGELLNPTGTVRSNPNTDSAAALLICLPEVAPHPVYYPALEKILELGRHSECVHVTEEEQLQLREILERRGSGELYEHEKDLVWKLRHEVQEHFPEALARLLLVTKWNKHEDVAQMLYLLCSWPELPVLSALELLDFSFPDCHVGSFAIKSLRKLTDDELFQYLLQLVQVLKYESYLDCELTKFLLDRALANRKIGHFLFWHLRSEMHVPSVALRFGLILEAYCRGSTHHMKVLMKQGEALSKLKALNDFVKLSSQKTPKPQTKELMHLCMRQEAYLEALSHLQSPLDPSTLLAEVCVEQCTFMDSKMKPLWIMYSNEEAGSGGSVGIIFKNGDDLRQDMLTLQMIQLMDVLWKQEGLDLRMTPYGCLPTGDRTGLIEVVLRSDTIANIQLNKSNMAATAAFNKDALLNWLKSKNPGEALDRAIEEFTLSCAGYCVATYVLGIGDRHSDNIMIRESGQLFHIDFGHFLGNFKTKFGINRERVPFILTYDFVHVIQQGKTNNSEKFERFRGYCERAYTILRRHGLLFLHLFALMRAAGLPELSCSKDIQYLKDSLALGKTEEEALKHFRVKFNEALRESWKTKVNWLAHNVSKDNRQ
# Procedure, shortened: (§2)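 Binding affinities were measured on the KINOMEscan platform.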
# [3] = biological target: T2, kinase enzymes (Homo sapiens, UniProt P42336); experiment: Enzyme binding assay (KINOMEscan, DiscoveRx), further kinases of Table A; conditions: PIK3Cα_h
# T2 construct: purchased DiscoveRx Corporation, San Diego (contract service, KINOMEscan)
# T2 sequence (P42336 whole entry): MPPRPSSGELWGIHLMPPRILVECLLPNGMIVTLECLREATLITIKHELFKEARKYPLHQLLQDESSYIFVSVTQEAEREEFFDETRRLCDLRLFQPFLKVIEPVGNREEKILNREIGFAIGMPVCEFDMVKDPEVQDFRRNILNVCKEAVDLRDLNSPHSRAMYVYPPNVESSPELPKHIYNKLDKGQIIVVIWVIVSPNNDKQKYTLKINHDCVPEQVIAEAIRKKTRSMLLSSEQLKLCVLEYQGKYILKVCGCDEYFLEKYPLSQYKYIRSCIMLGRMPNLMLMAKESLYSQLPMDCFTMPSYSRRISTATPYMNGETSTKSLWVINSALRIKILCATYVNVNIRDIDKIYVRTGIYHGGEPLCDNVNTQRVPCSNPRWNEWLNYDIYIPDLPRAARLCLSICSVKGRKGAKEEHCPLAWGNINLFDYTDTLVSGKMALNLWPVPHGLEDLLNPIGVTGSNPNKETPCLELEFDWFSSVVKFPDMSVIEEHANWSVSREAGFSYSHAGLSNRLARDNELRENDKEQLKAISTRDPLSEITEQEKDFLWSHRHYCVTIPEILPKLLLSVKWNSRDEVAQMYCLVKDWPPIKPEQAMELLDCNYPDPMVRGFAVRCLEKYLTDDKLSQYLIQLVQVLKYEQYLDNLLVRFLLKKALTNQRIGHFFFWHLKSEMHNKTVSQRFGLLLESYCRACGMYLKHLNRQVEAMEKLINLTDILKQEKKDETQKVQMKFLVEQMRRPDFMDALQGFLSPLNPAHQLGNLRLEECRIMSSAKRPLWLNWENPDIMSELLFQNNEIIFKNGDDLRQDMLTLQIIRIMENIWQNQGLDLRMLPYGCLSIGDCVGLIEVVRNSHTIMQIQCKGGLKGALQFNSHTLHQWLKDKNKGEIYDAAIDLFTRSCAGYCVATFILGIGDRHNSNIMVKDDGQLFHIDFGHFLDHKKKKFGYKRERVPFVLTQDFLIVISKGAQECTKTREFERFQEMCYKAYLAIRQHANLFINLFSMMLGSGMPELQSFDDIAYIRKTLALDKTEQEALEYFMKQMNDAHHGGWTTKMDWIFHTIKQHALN
# Procedure, shortened: as §2
# [4] = biological target: T3, kinase enzymes (Homo sapiens, UniProt P48736); experiment: as above; conditions: PIK3Cγ_h
# T3 construct: purchased DiscoveRx Corporation, San Diego (contract service, KINOMEscan)
# T3 sequence (P48736 whole entry): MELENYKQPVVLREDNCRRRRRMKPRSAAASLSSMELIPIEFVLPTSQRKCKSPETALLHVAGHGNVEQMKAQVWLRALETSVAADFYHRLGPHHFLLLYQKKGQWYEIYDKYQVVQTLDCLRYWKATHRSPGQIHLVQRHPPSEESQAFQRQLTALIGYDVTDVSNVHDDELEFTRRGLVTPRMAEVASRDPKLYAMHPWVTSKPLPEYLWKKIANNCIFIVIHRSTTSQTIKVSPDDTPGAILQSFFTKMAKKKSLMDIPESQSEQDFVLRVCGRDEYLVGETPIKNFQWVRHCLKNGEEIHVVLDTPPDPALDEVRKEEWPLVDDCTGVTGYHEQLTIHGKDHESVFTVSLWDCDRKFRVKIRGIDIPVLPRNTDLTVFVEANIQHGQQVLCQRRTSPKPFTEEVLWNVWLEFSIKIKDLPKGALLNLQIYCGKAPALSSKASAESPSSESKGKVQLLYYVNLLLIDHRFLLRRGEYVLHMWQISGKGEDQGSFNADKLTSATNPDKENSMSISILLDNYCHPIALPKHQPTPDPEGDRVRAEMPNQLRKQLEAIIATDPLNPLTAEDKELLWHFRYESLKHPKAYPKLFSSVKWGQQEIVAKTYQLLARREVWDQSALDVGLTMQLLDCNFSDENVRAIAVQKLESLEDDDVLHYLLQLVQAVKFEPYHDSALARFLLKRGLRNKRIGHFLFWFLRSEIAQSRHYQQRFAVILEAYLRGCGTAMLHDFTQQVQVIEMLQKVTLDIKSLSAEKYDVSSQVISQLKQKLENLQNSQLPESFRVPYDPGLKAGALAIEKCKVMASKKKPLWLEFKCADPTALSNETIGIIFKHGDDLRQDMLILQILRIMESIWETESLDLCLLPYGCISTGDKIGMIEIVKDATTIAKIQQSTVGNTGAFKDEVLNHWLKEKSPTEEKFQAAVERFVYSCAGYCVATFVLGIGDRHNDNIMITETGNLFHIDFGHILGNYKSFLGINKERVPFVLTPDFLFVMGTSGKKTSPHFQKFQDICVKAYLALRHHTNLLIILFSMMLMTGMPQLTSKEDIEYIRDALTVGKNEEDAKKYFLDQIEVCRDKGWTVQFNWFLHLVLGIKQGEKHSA
# Procedure, shortened: as §2
# [5] = biological target: T4, kinase enzymes (Homo sapiens, UniProt P42345); experiment: as above; conditions: MTOR_h
# T4 construct: purchased DiscoveRx Corporation, San Diego (contract service, KINOMEscan)
# Procedure, shortened: as §2
# [6] = biological target: T5, PI3Kβ (Homo sapiens, UniProt P42338); experiment: Enzyme binding assay (KINOMEscan, DiscoveRx); conditions: PIK3Cβ_h, read-out: Kd PIK3Cβ_h
# T5 construct: purchased DiscoveRx Corporation, San Diego (contract service, KINOMEscan)
# T5 sequence (P42338 whole entry): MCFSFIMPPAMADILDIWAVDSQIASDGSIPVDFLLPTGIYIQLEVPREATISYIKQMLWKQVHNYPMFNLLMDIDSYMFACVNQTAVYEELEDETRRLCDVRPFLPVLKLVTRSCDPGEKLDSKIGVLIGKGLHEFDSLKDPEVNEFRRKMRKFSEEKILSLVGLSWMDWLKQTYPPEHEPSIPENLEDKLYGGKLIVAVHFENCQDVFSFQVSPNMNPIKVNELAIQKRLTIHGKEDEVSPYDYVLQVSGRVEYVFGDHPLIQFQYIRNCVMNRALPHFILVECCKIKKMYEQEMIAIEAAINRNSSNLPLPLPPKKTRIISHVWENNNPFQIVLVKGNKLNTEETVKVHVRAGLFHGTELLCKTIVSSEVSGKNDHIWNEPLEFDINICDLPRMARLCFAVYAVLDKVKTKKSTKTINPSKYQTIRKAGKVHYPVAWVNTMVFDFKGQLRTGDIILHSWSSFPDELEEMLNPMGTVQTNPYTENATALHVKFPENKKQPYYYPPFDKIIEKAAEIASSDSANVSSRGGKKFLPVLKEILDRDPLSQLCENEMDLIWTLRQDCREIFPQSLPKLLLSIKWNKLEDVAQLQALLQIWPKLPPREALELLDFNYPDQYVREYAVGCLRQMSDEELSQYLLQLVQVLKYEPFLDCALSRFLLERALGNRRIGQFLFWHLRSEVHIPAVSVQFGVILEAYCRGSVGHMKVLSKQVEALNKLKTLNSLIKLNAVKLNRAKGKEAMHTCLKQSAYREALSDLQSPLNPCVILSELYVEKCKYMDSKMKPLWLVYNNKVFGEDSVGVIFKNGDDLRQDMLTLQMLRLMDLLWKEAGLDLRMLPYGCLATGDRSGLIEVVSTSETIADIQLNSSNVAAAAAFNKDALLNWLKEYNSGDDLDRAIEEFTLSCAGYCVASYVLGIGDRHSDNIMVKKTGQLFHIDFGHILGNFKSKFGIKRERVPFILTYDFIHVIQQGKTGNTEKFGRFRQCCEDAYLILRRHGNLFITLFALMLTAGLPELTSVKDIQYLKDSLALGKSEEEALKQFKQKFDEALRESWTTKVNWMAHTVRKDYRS
# Procedure, shortened: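 Kinase binding affinities were measured with KINOMEscan technology. Results are given as Kd, the inhibitor binding constant, in nM.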
# [7] = test system: Akt phosphorylated at Ser473 in PC-3 cells; experiment: Cellular assay: phosphorylation of Akt at Ser473 in PC-3 cells (MSD ELISA); type: cell-based; conditions: PC-3 cells, 60 min compound incubation, MSD ELISA, read-out: IC50 pAkt_S473
# Procedure, shortened: as §1
Structure (SMILES),IC50 [1],Kd [2],Kd [3],Kd [4],Kd [5],Kd [6],IC50 [7],melting point,"IC50 ([1]; Homo sapiens, PC-3, 1 h)","IC50 ([7]; Homo sapiens, PC-3, 1 h)"
"CN[C@@H]1CCN(C(=O)c2cc(C(C)Nc3ccc(F)c(F)c3)c3nc(N4CCOCC4)cnc3c2)C1 (single isomer, unassigned) [Compound 371a]",0.002 µM,0.083 µM,1.51 µM,1.05 µM,> 30.2 µM,0.0003 µM,0.01 µM,114 °C,,
"CN[C@@H]1CCN(C(=O)c2cc(C(C)Nc3ccc(F)c(F)c3)c3nc(N4CCOCC4)cnc3c2)C1 (single isomer, unassigned) [Compound 371b]",0.251 µM,5.01 µM,12.6 µM,11 µM,> 30.2 µM,0.02 µM,> 0.513 µM,107 °C,,
"CC(Nc1ccc(F)c(F)c1)c1cc(C(=O)N[C@H]2CCNC2)cc2ncc(N3CCOCC3)nc12 (single isomer, unassigned) [Compound 374a]",0.017 µM,0.141 µM,2.46 µM,5.89 µM,> 30.2 µM,0.0003 µM,0.032 µM,132 °C,,
"CC(Nc1ccc(F)c(F)c1)c1cc(C(=O)N[C@H]2CCNC2)cc2ncc(N3CCOCC3)nc12 (single isomer, unassigned) [Compound 374b]",> 0.513 µM,5.75 µM,13.5 µM,21.9 µM,> 30.2 µM,0.098 µM,> 0.513 µM,130 °C,,
"CC(Nc1cccc(F)c1)c1cc(C(=O)NCC(=O)O)cc2ncc(N3CCOCC3)nc12 (single isomer, unassigned) [Compound 393a]",,1.23 µM,0.437 µM,1.38 µM,6.76 µM,0.011 µM,,115 °C,> 0.513 µM,> 0.513 µM
"CC(Nc1cccc(F)c1)c1cc(C(=O)NCC(=O)O)cc2ncc(N3CCOCC3)nc12 (single isomer, unassigned) [Compound 393b]",> 0.513 µM,25.7 µM,11 µM,6.61 µM,15.8 µM,2.29 µM,> 0.513 µM,196 °C,,
"CN(C)C(=O)c1cc(N2CCCC2c2cc(F)cc(F)c2)c2nc(N3CCOCC3)cnc2c1 (single isomer, unassigned) [Compound 395a]",,1.26 µM,3.47 µM,17.8 µM,> 30.2 µM,0.033 µM,,90 °C,> 0.513 µM,> 0.513 µM
"CN(C)C(=O)c1cc(N2CCCC2c2cc(F)cc(F)c2)c2nc(N3CCOCC3)cnc2c1 (single isomer, unassigned) [Compound 395b]",> 0.513 µM,3.55 µM,3.98 µM,32.4 µM,18.6 µM,0.631 µM,> 0.513 µM,102 °C,,
"CN(C)C(=O)c1cc(N2CCC2c2ccc(F)cc2)c2nc(N3CCOCC3)cnc2c1 (single isomer, unassigned) [Compound 397a]",,10.7 µM,3.63 µM,25.1 µM,15.5 µM,1.41 µM,,80 °C,> 0.513 µM,> 0.513 µM
"CC(Oc1cc(F)cc(F)c1)c1cc(C(=O)N(C)C)cc2ncc(C3=CCOCC3)nc12 (single isomer, unassigned) [Compound 403a]",~0.132 µM,0.331 µM,1.48 µM,8.91 µM,> 30.2 µM,0.003 µM,,53 °C,,~0.275 µM
"CC(Oc1cc(F)cc(F)c1)c1cc(C(=O)N(C)C)cc2ncc(C3=CCOCC3)nc12 (single isomer, unassigned) [Compound 403b]",> 0.513 µM,17.4 µM,> 30.2 µM,> 30.2 µM,> 30.2 µM,3.16 µM,> 0.513 µM,54 °C,,
"CNCCNC(=O)c1cc(C(C)Nc2cc(F)cc(F)c2)c2nc(N3CCOCC3)cnc2c1 (single isomer, unassigned) [Compound 406a]",0.004 µM,0.039 µM,0.372 µM,1.05 µM,22.9 µM,0.0001 µM,0.008 µM,80 °C,,
OCc1cc(C2CCCN2c2cc(F)cc(F)c2)c2nc(N3CCOCC3)cnc2c1 (centres unmarked) [Compound 10],,0.074 µM,0.142 µM,0.336 µM,> 30.2 µM,0.0005 µM,,189 °C,0.003 µM,0.004 µM
CC(Nc1cc(F)cc(F)c1)c1cc(C(=O)N(C)C)cc2ncc(N3CCOCC3)nc12 (centres unmarked) [Compound 11],,0.275 µM,0.631 µM,2.51 µM,> 30.2 µM,0.001 µM,,228 °C,0.042 µM,0.081 µM
OCCNCc1cc(C2CCCN2c2cc(F)cc(F)c2)c2nc(N3CCOCC3)cnc2c1 (centres unmarked) [Compound 14],,0.036 µM,0.174 µM,0.229 µM,> 10 µM,0.0002 µM,,140 °C,0.011 µM,0.031 µM
CC(O)c1cc(C2CCCN2c2cc(F)cc(F)c2)c2nc(N3CCOCC3)cnc2c1 (centres unmarked) [Compound 16],,0.016 µM,0.093 µM,0.126 µM,17 µM,0.001 µM,,80 °C,0.002 µM,~0.005 µM
CNCC(O)c1cc(C2CCCN2c2cc(F)cc(F)c2)c2nc(N3CCOCC3)cnc2c1 (centres unmarked) [Compound 19],,0.029 µM,0.363 µM,0.309 µM,18.2 µM,0.0002 µM,,80 °C,0.01 µM,0.015 µM
CCN(c1cccc(F)c1)C(C)c1cc(C(=O)N2CCOCC2)cc2ncc(N3CCOCC3)nc12 (centres unmarked) [Compound 20],,1.55 µM,3.63 µM,22.4 µM,21.9 µM,0.017 µM,,80 °C,0.372 µM,0.363 µM
CN(C)C(=O)c1cc(C2CCCN2c2ccccc2)c2nc(N3CCOCC3)cnc2c1 (centres unmarked) [Compound 27],,0.058 µM,0.269 µM,1.62 µM,> 30.2 µM,0.001 µM,,80 °C,0.014 µM,0.022 µM
CN(C)C(=O)c1cc(C2CCCN2c2cccc(F)c2)c2nc(N3CCOCC3)cnc2c1 (centres unmarked) [Compound 28],,0.029 µM,0.107 µM,0.832 µM,> 30.2 µM,0.001 µM,,80 °C,0.006 µM,0.005 µM
COc1cc(F)cc(N2CCCC2c2cc(C(=O)N(C)C)cc3ncc(N4CCOCC4)nc23)c1 (centres unmarked) [Compound 32],,0.085 µM,0.12 µM,0.646 µM,> 30.2 µM,0.001 µM,,80 °C,0.017 µM,0.012 µM
O=C(c1cc(C2CCCN2c2cc(F)cc(F)c2)c2nc(N3CCOCC3)cnc2c1)N1CC2(C1)CS(=O)(=O)C2 (centres unmarked) [Compound 34],,0.03 µM,0.05 µM,0.933 µM,> 30.2 µM,0.0004 µM,,160 °C,0.003 µM,< 0.0008 µM

# From US10526316B2, “Quinoxaline and pyridopyrazine derivatives as PI3Kβ inhibitors” (Janssen Pharmaceutica NV, priority 2015, dated 2020)
